The values below come from publication PMC10538174, “Bioactivity-Guided Synthesis: In Silico and In Vitro Studies of β-Glucosidase Inhibitors to Cope with Hepatic Cytotoxicity” (Molecules, 2023).

The test system of test [1] is β-glucosidase from E. coli. Description: β-glucosidase enzyme inhibition assay (p-nitrophenyl-β-D-glucopyranoside substrate). It counts as biochemical. Conditions: for IC50: E. coli enzyme, pH 6.8, 37 °C, read at 405 nm, read-out: IC50 ± SEM against β-glucosidase; for % inhibition ± SD against β-glucosidase: test concentration not given. The procedure:
β-glucosidase inhibition activity of the synthesized compounds, with an enzyme concentration of […] were used for the inhibition assay. The IC50 values were determined at different concentrations using Graph Pad Prism v5.0.
(§1) All of the reported results are the mean of three independent experiments, and those compounds showing > 50% inhibition were further analyzed for their IC50 values at different dilutions. The IC50 values were calculated by using nonlinear regression analysis and GraphPad Prism version 8. SEM = standard error mean.
The inhibition analysis of β-glucosidase was carried out, where p-nitrophenyl-β-D-glucopyranoside was used as a substrate, and the β-glucosidase from E. coli (purchased from Sigma Aldrich) was dissolved in buffer solution (pH 6.8). A total volume of 60 µL of sodium phosphate buffer, 10 µL of each test sample (dissolved in 1% DMSO), and 10 µL of enzyme (1.5 U/mL) were mixed together and incubated for 5 min at 37 °C, followed by the addition of 10 µL of p-nitrophenyl-β-D-glucopyranoside (dissolved in a buffer solution). Incubation of the mixture was carried out for 30 min, and 10 µL of 0.2 M sodium carbonate solution was subsequently added. DMSO (1%) was used as a negative control. The p-nitrophenol produced from p-nitrophenyl-β-D-glucopyranoside was measured at a λmax of 405 nm in order to evaluate the activity of the test compounds against β-glucosidase. The %inhibition of β-glucosidase was calculated by the following formula: %Inhibition=(100−sample/control×100
Graph Pad Prism v5.00 was used to find out the IC50 (concentration at which 50% of enzymatic activity was inhibited by the test sample) value from a second-order regression analysis.

The next test deals with HepG2 cells. Description: MTT cell viability assay on HepG2 hepatic cancer cells. Conditions: for viability at 200 µg / IC50: Homo sapiens, HepG2, 48 h, MTT, 48 h; for viability at 200 µg: concentration of 200 µg, read-out: % viability ± SD against HepG2 cancer cell lines; for IC50: read-out: IC50 ± SEM against HepG2 cancer cell line. The class given is cell-based, human. The procedure:
as §1
The human liver cells were cultivated in Dulbecco’s modified Eagle medium (DMEM), in which 100 U/mL penicillin, 10% fetal bovine, and 100 µg/mL streptomycin were added and kept at 37 °C in a […] carbon dioxide-induced humidified environment. The human liver cells prepared as per the above procedure were then treated with synthesized compounds diluted to a 0.05% DMSO concentration.
By using an MTT assay, the %viability of cancer cells was evaluated. According to the standard procedure, the HepG2 cells were treated with various dosages of synthesized compounds for 48 h each. The cells were then incubated for 4 h at 37 °C with 10 μMTT reagent (5 mg/mL). Next, 150 μL of DMSO was added to dissolve the formazan crystals. The λmax was recorded at […] in a microplate reader (Thermos Scientific, Waltham, MA, USA).
For orientation: Tetrazolium dyes change colour on reduction, which living cells bring about.

In the case of `O=C(O)c1ccccc1C(=O)N1CCN(CCN2C(=O)c3ccccc3C2=O)CC1` [Compound 5c], in test [1], the half-inhibitory concentration (IC50) was determined as 1.26 ± 0.11 µM and the “% inhibition ± SD against β-glucosidase” value is listed as 71 ± 1.2%. The viability at 200 µg in the test on HepG2 cells was determined as 42.2 ± 2.2%.
The like results for `O=C(O)c1ccccc1C(=O)Nc1ccc([N+](=O)[O-])cc1` [Compound 2c] were, in that order, 2.17 ± 0.11 µM, 68 ± 1.41% and 29.4%.
With `Cc1ccc(N2C(=O)c3ccccc3C2=O)cc1` [Compound 7c], in test [1], the IC50 was 6.98 ± 0.31 µM and the “% inhibition ± SD against β-glucosidase” value is reported as 63.5 ± 0.71%. In the test with HepG2 cells, the viability at 200 µg worked out at 21.4 ± 3.4% and the IC50 worked out at 12.8 ± 2.33 µM.
Turning to `O=C(O)CCCCCN1C(=O)c2ccccc2C1=O` [Compound 8c], in test [1], the IC50 worked out at 4.78 ± 0.27 µM and the “% inhibition ± SD against β-glucosidase” value was 70.5 ± 2.12%. Moreover, the viability at 200 µg in the test with HepG2 cells is 24.8%.
Turning to `O=C1c2ccccc2C(=O)N1Cc1ccccc1` [Compound 6c], the “% inhibition ± SD against β-glucosidase” value in test [1] is 45.0 ± 1.41%.
With `O=C(O)c1ccccc1C(=O)Nc1ccc(Cl)cc1` [Compound 4c], the “% inhibition ± SD against β-glucosidase” value in test [1] was determined as 42 ± 1.42%. The viability at 200 µg in the test on HepG2 cells came to 26.9%.
Consider `O=C1c2ccccc2C(=O)N1c1ccccc1F` [Compound 10c], for which the “% inhibition ± SD against β-glucosidase” value in test [1] stood at 50.5 ± 2.31%. In the test with HepG2 cells, the viability at 200 µg stood at 20.5 ± 4.2% and the half-maximal inhibitory concentration (IC50) turned out to be 48 ± 2.18 µM.
Regarding `O=C(O)c1ccc(NC(=O)c2ccccc2C(=O)O)cc1` [Compound 1c], in test [1], the IC50 stood at 1.26 µM and the “% inhibition ± SD against β-glucosidase” value stood at 76 ± 1.41%. Besides, the “β-glucosidase inhibition better than the standard” value in test [1] (versus acarbose) worked out at 40%. For the same compound, the viability at 200 µg in the test on HepG2 cells is 35.6%.
As to `O=C(O)c1ccc(N2C(=O)c3ccccc3C2=O)cc1` [Compound 9c], the “% inhibition ± SD against β-glucosidase” value in test [1] was determined as 61.5 ±0.12%.
As for `O=C1c2ccccc2C(=O)N1c1ccccc1` [Compound 12c], the “% inhibition ± SD against β-glucosidase” value in test [1] is 45.2 ±0.4%. Moreover, the viability at 200 µg in the test with HepG2 cells amounted to 27.2%.
Consider `O=C(O)c1ccccc1C(=O)Nc1ccc(Cl)c(C(F)(F)F)c1` [Compound 3c], for which, in test [1], the IC50 was determined as 3 ± 0.17 µM and the “% inhibition ± SD against β-glucosidase” value came out at 70 ± 2.82%. For the same compound, the viability at 200 µg with HepG2 cells is 12.8%. In the test with HepG2 cells (versus thalidomide), the “more anti-tumor activity against the HepG2 cell line than the known drug” value is reported as “greater than 9%”.
For `C[C@H]1O[C@H](O[C@H]2[C@H](O)[C@@H](O)[C@@H](O[C@H]3[C@H](O)[C@@H](O)C(O)O[C@@H]3CO)O[C@@H]2CO)[C@H](O)[C@@H](O)[C@@H]1N[C@H]1C=C(CO)[C@@H](O)[C@H](O)[C@H]1O` (stereo partly shown) [Acarbose, reference compound], the half-maximal inhibitory concentration (IC50) in test [1] worked out at 2.15 µM.
In the case of `Cc1c(N2C(=O)c3ccccc3C2=O)c(=O)n(-c2ccccc2)n1C` [Compound 11c], in test [1], the IC50 was determined as 9.57 ± 0.22 µM and the “% inhibition ± SD against β-glucosidase” value was determined as 56.5 ± 2.45%. In the test with HepG2 cells, the viability at 200 µg was 40.8 ± 2.5%.

For orientation: IC50 means the concentration needed to halve the response being measured. As usually defined, the viability is a per cent measure of how many cells are alive, often set against a control.
